Results published in patent publication US7335770B2, “Triazine compounds and their analogs, compositions, and methods” (Reddy U5 Therapeutics, Inc., priority 2004, dated 2008).
Values belong to the molecule of their own block, whether it stands above or below them.

What was measured:
MCP1 = assay: inhibition of TNF-induced MCP1; format: cell-based; conditions: @ 10 uM concentration; read-out: TNF-induced MCP1, In-vitro % of inhibition
Procedure: The activity of the compounds of the present invention in inhibiting glycated protein- and AGE-induced inflammation can be determined using the assays described herein and in U.S. patent application Ser. No. 10/026,335, which is herein incorporated in its entirety. Such assays comprise measurement of the specific activity of biological components involved in a known cellular response. The assays provide a measurable response in which the activity of the compounds is determined. One assay comprises measurement of the effects of compounds on an inflammatory response by cells to the presence of a stimulating agent. Yet another assay comprises endothelial cells that are stimulated by the addition of a glycated protein, the stimulating agent. The endothelial cells respond by producing specific cytokines. The amount of cytokines produced are determined by measurement protocols known to those skilled in the art. The compounds of the present invention are then added to the assay and the production of cytokines is measured. From the comparison of the assay without the compound with the assay with the compound, the biological effect of the compound can be determined. The compound may have an inhibitory effect, a stimulatory effect, or no effect at all.
The amount and type of cytokine produced can be determined using immunological methods, such as ELISA assays. The methods of the present invention are not limited by the type of assay used to measure the amount of cytokine produced, and any methods known to those skilled in the art and later developed can be used to measure the amount of cytokines produced in response to the stimulating agent and to the compound having unknown activity.
Assays for determining the activity of compounds capable of modulating inflammation include those taught in U.S. patent application Ser. No. 10/026,335 and 09/969,013, which are both expressly incorporated by reference. In general, once the baseline response to the stimulating agent for the production of cytokines by the endothelial cells is established, thus comprising the control levels for the screening assay, the methods comprise addition of compounds of the present invention. The effect of the compound on the baseline response is determined by comparing the amount of cytokine produced in the presence of the stimulating agent and the amount of cytokine produced in the presence of the stimulating agent and the compound of the present invention. In a preferred method, compounds that have inhibitory effects on the inflammation of the cells in the presence of glycated albumin are then used as therapeutic agents. One or more compounds may be added to the screening assay. Combinations or mixtures of compounds can be added. Different amounts and formulations of the compounds are added to determine the effects on the screening assay. The screening assay may also be used to determine stimulatory compounds or compounds that have no effects in the assay.

[1] = test system: smooth muscle cells (SMC); assay: anti-proliferation assay (perlecan); format: cell-based; conditions: using the same activity scale used in Table 3
How it was run: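 Compounds are added to smooth muscle cells in growth or serum-free medium. The change in proliferation is measured, e.g. by labelled-nucleotide incorporation into DNA, against untreated cells; IC50 values are given as activity bins.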

IL6 = assay: inhibition of TNF-induced IL6 production; format: cell-based; conditions: for IC50: given as '50% at x μM', read-out: Inhibition of TNF-induced IL6 production: concentration giving 50% inhibition

Compound: COc1ccc(Nc2nc(NC3CCCCCC3)nc(OCc3cccc(C)n3)n2)cc1Cl
- inhibition at 10 µM (MCP1): 48%

Compound: COc1ccc(Nc2nc(NC3CCCCCC3)nc(-c3cc(O)ccc3O)n2)cc1Cl
- inhibition at 10 µM (MCP1): 100%

- melting point: 132 to 134 °C
Compound: COc1ccc(Nc2nc(NC3CCCCCC3)nc(Oc3ccc(C#CC(C)(C)O)cc3)n2)cc1Cl

Compound: Cc1ccc(Nc2nc(NC3CCCCCC3)nc(N(C)C3CCN(C)CC3)n2)cc1F
- melting point: 93 °C

Compound: CN1CCC(N(C)c2nc(Nc3cccc(F)c3)nc(NC3CCCCCC3)n2)CC1
- melting point: 86 °C

- melting point: 64 °C
Compound: CCN1CCCC1CNc1nc(Nc2ccc(OCc3ccccc3)c(Cl)c2)nc(NC2CCCCCC2)n1 (centres unmarked)

Compound: COc1ccc(Nc2nc(NNC(=O)CCCCC3SCC4NC(=O)NC43)nc(NC3CCCCCC3)n2)cc1Cl (centres unmarked)
- melting point: 154 °C

Compound: COc1ccc(Oc2nc(Oc3ccc(OC)c(F)c3)nc(Oc3ccc(OC)c(F)c3)n2)cc1F [2,4,6-Tris-(3-fluoro-4-methoxy-phenoxy)-[1,3,5]triazine]
- activity in anti-proliferation assay (Perlecan), in words [1]: high activity
- melting point: > 210 °C

- melting point: 206 to 208 °C
Compound: COc1ccc(Nc2nc(NC3CCCCCC3)nc(Oc3ccccc3I)n2)cc1Cl [Example 10, N^2-(3-chloro-4-methoxyphenyl)-N-4-cycloheptyl-6-(2-iodophenoxy)-1,3,5-triazine-4,2-diamine]

- melting point: 150 to 158 °C
Compound: COc1ccc(Nc2nc(NC3CCCCCC3)nc(Oc3ccccc3C#CC(C)(C)O)n2)cc1Cl [Example 12, 4-{2-[4-(3-chloro-4-methoxyanilino)-6-cycloheptylamino-1,3,5-triazine-2-yl-oxy]-phenyl}-2-methyl-3-butyn-2-ol]

- melting point: 218 to 220 °C
Compound: COc1ccc(Nc2nc(NC3CCCCCC3)nc(Oc3ccc(C=O)cc3)n2)cc1Cl [Example 15, 4-[4-(3-chloro-4-methoxyanilino)-6-cycloheptylamino-1,3,5-triazine-2-yl-oxy]-benzaldehyde]

- melting point: 186 to 196 °C
Compound: COc1ccc(Nc2nc(NC3CCCCCC3)nc(Oc3ccc(C(C)=O)cc3Cl)n2)cc1Cl [Example 19, 1-{3-chloro-4-[4-(3-chloro-4-methoxyphenylamino)-6-cycloheptylamino-[1,3,5]triazine-2-yloxy]phenyl}ethanone]

- melting point: 61 °C
Compound: COc1ccc(Nc2nc(NC3CCCCCC3)nc(OCC3CCCO3)n2)cc1Cl (centres unmarked) [Example 30, N-(3-Chloro-4-methoxy-phenyl)-N′-cycloheptyl-6-(tetrahydro-furan-2-ylmethoxy)-[1,3,5]triazine-2,4-diamine]

- melting point: 92 °C
Compound: CCN1CCCC1CNc1nc(NC2CCCCCC2)nc(NC2CCC(O)CC2)n1 (centres unmarked) [Example 31, 4-{4-Cycloheptylamino-6-[(1-ethyl-pyrrolidin-2-ylmethyl)-amino]-[1,3,5]triazin-2-ylamino}-cyclohexanol]

- melting point: 78 °C
Compound: CCN1CCCC1CNc1nc(Nc2ccc(C)c(F)c2)nc(NC2CCCCCC2)n1 (centres unmarked) [Example 32, N-Cycloheptyl-N′-(1-ethyl-pyrrolidin-2-ylmethyl)-N″-(3-fluoro-4-methyl-phenyl)-[1,3,5]triazine-2,4,6-triamine]

- melting point: 77 °C
Compound: COc1ccc(Nc2nc(NCC3CCCO3)nc(NC3CCCCCC3)n2)cc1Cl (centres unmarked) [Example 37, N-(3-Chloro-4-methoxy-phenyl)-N′-cycloheptyl-N″-(tetrahydro-furan-2-ylmethyl)-[1,3,5]triazine-2,4,6-triamine]

- melting point: 94 °C
Compound: COc1ccc(Nc2nc(NCCNC(=O)OC(C)(C)C)nc(NC3CCCCCC3)n2)cc1Cl [Example 39, {2-[4-(3-Chloro-4-methoxy-phenylamino)-6-cycloheptylamino-[1,3,5]triazin-2-ylamino]-ethyl}-carbamic acid tert-butyl ester]

- melting point: 77 °C
Compound: COc1ccc(Nc2nc(NCCN)nc(NC3CCCCCC3)n2)cc1Cl [Example 40, N-(2-Amino-ethyl)-N′-(3-chloro-4-methoxy-phenyl)-N″-cycloheptyl-[1,3,5]triazine-2,4,6-triamine]

- IC50 (IL6): 15 µM
Compound: COc1ccc(Nc2nc(NCCNC(=O)OC(C)(C)C)nc(NC3CCCCCC3)n2)cc1Cl [drawing 602, {2-[4-(3-Chloro-4-meth-oxy-phenylamino)-6-cyclo-heptylamino-[1,3,5]triazin-2-ylamino]-eth-yl}-carbamic acid tert-butyl ester]

- IC50 (IL6): 2.7 µM
Compound: COc1ccc(Nc2nc(NCCN)nc(NC3CCCCCC3)n2)cc1Cl [drawing 603, N-(2-Amino-eth-yl)-N′-(3-chloro-4-methoxy-phe-nyl)-N″-cycloheptyl-[1,3,5]triazine-2,4,6-tri-amine]

- IC50 (IL6): 3.3 µM
Compound: CCN1CCCC1CNc1nc(Nc2ccc(C)c(F)c2)nc(NC2CCCCCC2)n1 (centres unmarked) [drawing 604, N-Cycloheptyl-N′-(1-ethyl-pyrrolidin-2-yl-methyl)-N″-(3-fluoro-4-meth-yl-phenyl)-[1,3,5]tri-azine-2,4,6-triamine]

Compound: Cc1ccc(Nc2nc(NC3CCCCCC3)nc(N(C)C3CCN(C)CC3)n2)cc1F [drawing 605, N-Cycloheptyl--N′-(3-fluoro-4-methyl-phenyl)-N″-meth-yl-N″-(1-methyl-piperidin-4-yl)-[1,3,5]tri-azine-2,4,6-triamine]
- IC50 (IL6): 3.6 µM

Compound: CN1CCC(N(C)c2nc(Nc3cccc([N+](=O)[O-])c3)nc(NC3CCCCCC3)n2)CC1 [drawing 606, N-Cycloheptyl-N′-methyl-N′-(1-methyl-piper-idin-4-yl)-N″-(3-nitro-phenyl)-[1,3,5]tri-azine-2,4,6-triamine]
- IC50 (IL6): 3.3 µM

- IC50 (IL6): 1.1 µM
Compound: CCN1CCCC1CNc1nc(Nc2ccc(OCc3ccccc3)c(Cl)c2)nc(NC2CCCCCC2)n1 (centres unmarked) [drawing 607, N-(4-Benzyloxy-3-chloro-phenyl)-N′-cyclo-heptyl-N″-(1-ethyl-pyrrolidin-2-yl-methyl)-[1,3,5]triazine-2,4,6-triamine]

Compound: COc1ccc(Oc2nc(Oc3ccc(OC)c(F)c3)nc(Oc3ccc(OC)c(F)c3)n2)cc1F [drawing 608, 2,4,6-Tris-(3-fluoro-4-meth-oxy-phenoxy)-[1,3,5]triazine]
- inhibition at 10 µM (IL6; at 10 μM): 5%

Compound: COc1ccc(Nc2nc(NCCCCCNC(=O)CCCCC3SCC4NC(=O)NC43)nc(NC3CCCCCC3)n2)cc1Cl (centres unmarked) [drawing 609, 5-(2-Oxo-hexahydro-thieno[3,4-d]imi-dazol-4-yl)-pentanoicacid {5-[4-(3-chloro-4-methoxy-phenylamino)-6-cycloheptylamino-[1,3,5]tri-azin-2-ylamino]-pentyl}-amide]
- IC50 (IL6): 5 µM

Compound: COc1ccc(Nc2nc(NC3CCCCCC3)nc(NC3CCN(C(=O)CCCCC4SCC5NC(=O)NC54)CC3)n2)cc1Cl (centres unmarked) [drawing 610]
- IC50 (IL6): 19 µM

Compound: CCc1occc(=O)c1Oc1nc(Nc2ccc(OC)c(Cl)c2)nc(NC2CCCCCC2)n1 [drawing 616]
- inhibition at 10 µM (MCP1): 48%

Compound: COc1ccc(Nc2nc(NC3CCCCCC3)nc(Oc3ccccc3F)n2)cc1Cl [drawing 618]
- inhibition at 10 µM (MCP1): 10%

Compound: COc1ccc(Nc2nc(NC3CCCCCC3)nc(Oc3ccc(C(C)=O)cc3)n2)cc1Cl [drawing 624]
- inhibition at 10 µM (MCP1): 25%

Compound: COc1ccc(Nc2nc(NC3CCCCCC3)nc(Oc3ccc(/C=N\O)cc3)n2)cc1Cl [drawing 625]
- inhibition at 10 µM (MCP1): 100%

Compound: COc1ccc(Nc2nc(NC3CCCCCC3)nc(Oc3ccc(C(C)=O)cc3Cl)n2)cc1Cl [drawing 626]
- inhibition at 10 µM (MCP1): 82%

Compound: COc1ccc(Nc2nc(NC3CCCCCC3)nc(Sc3ccccc3)n2)cc1Cl [drawing 628]
- inhibition at 10 µM (MCP1): 10%

Compound: COc1ccc(Nc2nc(NC3CCCCCC3)nc(Sc3ccc(F)cc3)n2)cc1Cl [drawing 630]
- inhibition at 10 µM (MCP1): 15%

Compound: COc1cc(OC)c(-c2nc(Nc3ccc(OC)c(Cl)c3)nc(NC3CCCCCC3)n2)c(OC)c1 [drawing 632]
- inhibition at 10 µM (MCP1): 10%

Compound: COc1ccc(Nc2nc(NC3CCCCCC3)nc(-c3c(O)ccc4ccccc34)n2)cc1Cl [drawing 634]
- inhibition at 10 µM (MCP1): 100%

Compound: COc1ccc(Nc2nc(NCCNC(=O)OC(C)(C)C)nc(NC3CCCCCC3)n2)cc1Cl [{2-[4-(3-Chloro-4-methoxy-phenylamino)-6-cycloheptylamino-[1,3,5]triazin-2-ylamino]-ethyl}-carbamic acid tert-butyl ester]
- activity in anti-proliferation assay (Perlecan), in words [1]: high activity
